Measured values taken from US6723699B1, “Treating disorders by application of insulin-like growth factors and analogs” (Cephalon, Inc., priority 1989, dated 2004).

Experiments:
IGF-I receptor = biological target: T1, IGF-I receptor (Rattus norvegicus, UniProt P24062); assay: 125I-[Threonine59]IGF-I displacement (IGF-I receptor competition) assay, rat brain homogenate; format: binding
T1 construct: Brain tissue containing the cerebral cortex and cerebellum was dissected from adult Sprague-Dawley rats; from tissue; host or cells: adult Sprague-Dawley rat brain (cerebral cortex and cerebellum), homogenate pellet
T1 sequence (P24062 31-737 limits assumed): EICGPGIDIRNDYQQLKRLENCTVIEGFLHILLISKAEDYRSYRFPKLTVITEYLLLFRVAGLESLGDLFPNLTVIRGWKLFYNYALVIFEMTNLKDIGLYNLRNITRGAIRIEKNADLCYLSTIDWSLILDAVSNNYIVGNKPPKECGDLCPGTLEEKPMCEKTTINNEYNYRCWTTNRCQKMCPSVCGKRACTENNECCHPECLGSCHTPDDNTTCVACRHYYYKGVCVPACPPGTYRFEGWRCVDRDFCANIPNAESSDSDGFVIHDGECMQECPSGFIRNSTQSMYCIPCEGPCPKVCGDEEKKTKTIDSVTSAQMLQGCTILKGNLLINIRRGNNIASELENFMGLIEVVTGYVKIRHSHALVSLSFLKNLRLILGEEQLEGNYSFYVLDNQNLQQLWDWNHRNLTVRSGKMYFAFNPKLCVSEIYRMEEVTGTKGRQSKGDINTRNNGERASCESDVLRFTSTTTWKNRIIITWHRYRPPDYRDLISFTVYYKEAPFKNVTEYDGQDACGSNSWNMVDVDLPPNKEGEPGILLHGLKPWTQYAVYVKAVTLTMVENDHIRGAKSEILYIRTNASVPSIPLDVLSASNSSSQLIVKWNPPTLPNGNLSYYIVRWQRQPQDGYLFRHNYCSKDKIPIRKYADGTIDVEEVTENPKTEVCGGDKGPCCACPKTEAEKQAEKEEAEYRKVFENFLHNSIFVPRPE
T1 sequence (P24062 742-1370 partner limits assumed): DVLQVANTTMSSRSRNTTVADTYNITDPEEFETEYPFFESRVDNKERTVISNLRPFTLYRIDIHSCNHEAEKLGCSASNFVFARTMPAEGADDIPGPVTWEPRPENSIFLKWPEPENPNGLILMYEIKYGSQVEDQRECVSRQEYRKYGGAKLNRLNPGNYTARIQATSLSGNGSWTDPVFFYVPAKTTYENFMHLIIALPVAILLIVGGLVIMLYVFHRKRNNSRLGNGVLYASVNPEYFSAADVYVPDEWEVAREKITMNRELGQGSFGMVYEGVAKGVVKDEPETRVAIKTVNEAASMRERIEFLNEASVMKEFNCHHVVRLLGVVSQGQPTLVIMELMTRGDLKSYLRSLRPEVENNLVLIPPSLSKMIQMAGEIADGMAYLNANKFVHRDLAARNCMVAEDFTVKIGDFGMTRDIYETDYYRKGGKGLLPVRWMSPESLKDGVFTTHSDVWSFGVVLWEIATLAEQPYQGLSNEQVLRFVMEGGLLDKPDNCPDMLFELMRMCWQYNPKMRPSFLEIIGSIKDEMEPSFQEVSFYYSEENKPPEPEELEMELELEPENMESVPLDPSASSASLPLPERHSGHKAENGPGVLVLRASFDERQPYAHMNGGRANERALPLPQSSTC
Experimental: Brain tissue containing the cerebral cortex and cerebellum was dissected from adult Sprague-Dawley rats (Hilltop Lab Animals, Inc. Scottsdale, Pa.) and homogenized at low power for 5 minutes in a Brinkmann Polytron homogenizer (Westbury, N.Y.) containing 50 volumes of ice-cold buffer consisting of 10 mM HEPES, 0.5% BSA, 0.0125% NEM, 0.025% bacitracin, and 100 KIU/ml aprotinin, pH 7.6 (Bohannon et al., Endocrinology 119:943-945 (1986). Following homogenization, the tissue was collected after centrifugation at 7800×g for 20 minutes and resuspended in 10 volumes of assay buffer. Tissue (50 μl), 100 μl ^125I-[Threonine^59]IGF-I (20 pM), and 50 μl of buffer or peptides of varying concentration were added to 96-well plates and incubated on ice for 3 hours. After the incubation period, the tissue was collected on Whatman GF/C filters that had been pre-soaked in 0.01% polyethylenimine and washed four times with ice-cold assay buffer using a Brandel cell harvester (Gaithersburg, Md.). The filters were removed and the bound ^125I-[Threonine 59]IGF-I was measured using a Beckman Model 5500B Gamma Counter.

[1] = tested on: fetal rat cortical neuronal cultures; assay: Fetal rat cortical neuron survival by [3H]leucine incorporation; format: cell-based
Experimental: The neuronal survival promoting activity of IGF-I and IGF-II was assayed on fetal rat cortical neuranal cultures. Cerebral cortices were removed from embryonic day 18 fetal rats. Cortices were minced and treated with neutral protease (Dispase, Collaborative Research) to yield dissociated cell preparations. Cells were plated at low density (5×10^3 cells/well) onto poly-L-ornithine and laminin coated ½ area 96 well plates in 50 μl of serum and insulin-free N2 medium containing 0.05% BSA and 50 μM leucine. IGF-I or II were present from time of seeding. Control cultures received no growth factor. Cultures were incubated for 24 hr at 37° C. in an atmosphere of 5% CO2, 95% air. After 24 hrs, [^3H]leucine was added in an additional 50 μl of modified N2 medium to a final concentration of 12.5 μCi/ml. Twenty-four hours after the addition of [^3H]leucine, cultures were harvested, protein precipitated on filters with 10% trichloroacetic acid, and dried filters counted in a liquid scintillation counter. The incorporation of [^3H]leucine into cells is an accurate reflection of cell survival, since incorporated [^3H]leucine counts correlated directly with the number of surviving cells as measured by microscopic counts of cells in identical cultures.

[2] = tested on: cultured rat septal cells; assay: ChAT activity in cultured rat septal cells; format: cell-based
Experimental: The effect of simultaneous administration of IGF-I and NGF on ChAT activity was assayed in cultured septal neurons. ChAT is the initial enzyme in the synthesis of the neurotransmitter, acetylcholine, and is a specific biochemical marker for cholinergic neurons. Assay of this enzyme may be used as an indication of the effects of IGF (and other factors) on the survival of cholinergic neurons and/or regulation of this enzyme. […] In FIG. 9 open squares represent IGF-I, diamonds indicate IGF-I+2 nM NGF, open circles indicate 2 nM NGF, and the horizontal line at 403 DPM represents uninduced cells. A similar additive effect was seen when saturating concentrations of IGF-I were combined with saturating or sub-maximal concentrations of NGF, as shown in FIG. 10. In FIG. 10 open squares indicate NGF, diamonds indicate NGF+25 nM IGF-I, open circles represent 25 nM IGF-I, and the horizontal line at 554 DPM represents uninduced cells.
Cultured rat septal cell experiments were performed generally as described in Hartikku and Hefti, J. Neuroscience, 8:2967-2985 […], Hayashi and Patel, Dev. Brain Res., 36:109-120 (1987), and as follows.
(§1) Dissociated cell cultures of the septal region of day 17 embryonic rats were prepared by standard techniques known to those skilled in the art, using enzymatic (Dispase, Collaborative Research) dissociation of tissue. Cells were seeded (plated) at 6×10^5 cells/cm^2 in poly-1-ornithine-laminin coated plastic tissue culture wells, and cultured in serum-free N2 medium (Bottenstein et al., 1978) for 5 days without feeding. Control (uninduced) cultures received no added growth factors; induced cultures received the concentrations of IGF-I and NGF indicated in FIGS. 9 and 10 at the time of plating. NGF is commercially available. ChAT was assayed by the method described in McManaman, et al. Dev. Biol. 125:311-320 (1988). AChE staining was performed according to the method of Hartikka and Hefti, J. Neuroscience 8:2967-2985 (1988).

septal cultures = assay: Number of AChE positive cells in rat septal cultures; format: cell-based; conditions: 100 nM IGF-I; 4×10^5 cells/cm^2, medium with 10% bovine calf serum
Experimental: as §1
We have shown that under specific culture conditions (4×10^5 cells/cm^2 in the presence of medium containing 10% bovine calf serum), IGF-I increased the number of AChE positive cells by 3-4 fold over control, growth factor-free cultures, FIG. 12.

GPETLCGAELVDALQFVCGDRGFYFNKPTGYGSSS-RRAPQTGIVDECCFRSCDLRRLEMYCAPLKPAKSA [IGF-I]
PERCENT MAX. BOUND (IGF-I receptor; peptide 10 pM, 20 pM 125I-[Thr59]IGF-I): 100% | PERCENT MAX. BOUND (IGF-I receptor; peptide 40 nM): 9.6% | displacement of 125I-[Threonine59]IGF-I (in words) (IGF-I receptor; rat brain homogenate): potent displacers | relative potency in promoting survival of cortical neurons (in words) ([1]; IGF-I versus IGF-II): slightly more potent | survival of cortical neurons (in words) ([1]; [3H]leucine incorporation, 48 hr): promoted the survival of cortical neurons | ChAT activity % increase over control ([2]; concentration not printed (second part of table)): 44% | ChAT activity % increase over control ([2]; single growth factor 1.3 nM): 20% | ChAT activity % increase over control ([2]; single growth factor 12.5 nM): 50% | ChAT activity % increase over control ([2]; single growth factor 25.0 nM): 37% | increase in number of AChE positive cells over control (septal cultures): 3-4 fold
